Results: patent US20050171424A1, “Methods for imaging the lymphatic system using dendrimer-based contrast agents” (The Gov. of the USA as rep. by the Secretary of the Dept. …, priority 2004, published 2005)

What was measured:
[1] = tested on: Draining Lymph Nodes (LNs) From the Normal Breast Tissue; assay: Dynamic micro-MR mammo-lymphangiography of lymphatic drainage from the normal mammary gland; assay type: in vivo, mice (Balb/c, athymic nu/nu)
Protocol: (§1) Mice were anesthetized with 1.15 mg sodium pentobarbital (Dainabot, Osaka, Japan), and then injected with 0.15-0.24 μmol Gd/5-8 μL of the PAMAM-G6 contrast agent into normal mammary glands or mammary tissue surrounding a tumor (peritumorally). Dynamic micro-MR images were obtained using a 1.5-Tesla superconductive magnet unit (Signa LX, General Electric Medical System, Milwaukee, Wis.) with a birdcage type coil of 3 cm diameter fixed by a custom made coil holder. [Single and double “breast coils” used for imaging breasts in humans are commercially available, for example, from GE Medical Systems (Milwaukee, Wis.) and are routinely available in outpatient MRI centers] The mice were wrapped with gauze to stabilize their body temperature and were placed at the center of the coils.
In order to evaluate the lymphatic drainage from the normal mammary gland of either Balb/c mice (n=5) or athymic nu/nu mice (n=5), 3D-fast spoiled gradient echo [3D-fastSPGR (efgre3d package; Signa Horizon, GE); repetition time/echo time 19.2/7.2 msec; inversion time 47 msec; 31.2 kHz, flip angle 30°, 4 excitations; 36 slice encoding steps; scan time 4 min 49 seconds] with chemical shift fat-suppression was used 6, 12, 18, 24, 30, 36, 42, and 48 min after injection of the contrast agent. The coronal images were reconstructed with 0.6-mm section thickness every 0.3-mm. The FOV was 8×4 cm and the size of the matrix was 512×256. The slice data were processed into 3D images using the maximum intensity projection (MIP) method with the same window and level (window 3500 and level 2100) (Advantage Windows, General Electric Medical System). After imaging, the mice were sacrificed by carbon dioxide inhalation.

[2] = tested on: draining lymph nodes and lymphatic vessels; assay: 3D dynamic mammo-lymphangiograms after sequential injection of GPDM and PAMAM-G6 into the mammary gland; assay type: in vivo, athymic nu/nu mice; settings: 0.15 μmol Gd into mammary gland; GPDM imaged at 12, 24, 36 min, then PAMAM-G6 injected 36 minutes following GPDM
Protocol: Mice were anesthetized with 1.15 mg sodium pentobarbital (Dainabot, Osaka, Japan), and then injected with 0.15-0.24 μmol Gd/5-8 μL of the PAMAM-G6 contrast agent into normal mammary glands or mammary tissue surrounding a tumor (peritumorally). Dynamic micro-MR images were obtained using a 1.5-Tesla superconductive magnet unit (Signa LX, General Electric Medical System, Milwaukee, Wis.) with a birdcage type coil of 3 cm diameter fixed by a custom made coil holder. [Single and double “breast coils” used for imaging breasts in humans are commercially available, for example, from GE Medical Systems (Milwaukee, Wis.) and are routinely available in outpatient MRI centers] The mice were wrapped with gauze to stabilize their body temperature and were placed at the center of the coils. Athymic nu/nu mice (n=4) were anesthetized and injected with 0.15 μmol Gd of GPDM into the mammary gland, and images were taken 12, 24, and 36 min after injection. Following these three images, these mice were subsequently injected with 0.15 μmol Gd of PAMAM-G6 contrast agent in the mammary gland, and images were taken at 12 and 24 min post-injection of the PAMAM-G6 contrast agent (at 48 and 60 min post-injection of GPDM).

[3] = tested on: lymphatic drainage from tumor-bearing mammary glands; assay: Mammo-MR-lymphangiography of tumor-bearing mammary glands, BALB-neuT transgenic breast cancer model; assay type: in vivo, BALB-neuT transgenic mice; settings: FIG. 4
Protocol: The breast-tumor bearing mice were thirty one week-old BALB-neuT mice (n=3) transgenic for the rat HER-2/neu (Erb B2) oncogene under the control of the mouse mammary tumor virus promotor (MMTV). […] BALB-neuT mice were used because of their spontaneous development of bilateral breast cancers and lymph node metastases. […] Most metastatic lymph nodes from the mouse mammary pad localize in the neck, lateral thoracic, or axillary region.
Mice were anesthetized with 1.15 mg sodium pentobarbital (Dainabot, Osaka, Japan), and then injected with 0.15-0.24 μmol Gd/5-8 μL of the PAMAM-G6 contrast agent into normal mammary glands or mammary tissue surrounding a tumor (peritumorally). Dynamic micro-MR images were obtained using a 1.5-Tesla superconductive magnet unit (Signa LX, General Electric Medical System, Milwaukee, Wis.) with a birdcage type coil of 3 cm diameter fixed by a custom made coil holder. [Single and double “breast coils” used for imaging breasts in humans are commercially available, for example, from GE Medical Systems (Milwaukee, Wis.) and are routinely available in outpatient MRI centers] The mice were wrapped with gauze to stabilize their body temperature and were placed at the center of the coils. […]

[4] = tested on: lymphatic drainage from PT-18 tumor-bearing mammary gland; assay: Mammo-MR-lymphangiography of PT-18 tumor xenograft-bearing mammary gland; assay type: in vivo, athymic nu/nu mice; settings: FIG. 5
Protocol: Tumor xenografts of PT-18, a murine mast cell line, were introduced into the left mammary pad in athymic nu/nu mice. When 10^7 PT-18 cells were injected in the left mammary pad of 10 athymic nu/nu mice, six mice developed tumor masses in the left axillary lymph nodes within three weeks.
as §1
In order to evaluate lymphatic drainage from six tumor-bearing mammary glands of three BALB-neuT transgenic mice or the PT-18 tumor-bearing mammary gland of athymic nu/nu mice (n=6), 2D fast-inversion recovery [2D-fastIR; repetition time/echo time 8000/96 msec; inversion time 150 msec; 31.2 kHz, 2 excitations; 16 slices; scan time 2 min 16 seconds] was employed to evaluate the tumor localization before injection of PAMAM-G6 contrast agent. The coronal images were reconstructed with 1.5 mm section thickness without a gap. The FOV was 8×4 cm and the size of matrix was 512×256. The slice data were processed into 3D images using the MIP method with the same window and level (window 3500 and level 2100) (Advantage Windows, GE). Then images were obtained with the 3D-fastSPGR sequence as described above.

[5] = Distribution and survival properties of the dendrimer conjugates; settings: in vivo
[6] = 6 min after injection into normal mammary gland
[7] = 12 min after injection into normal mammary gland
[8] = 18 min after injection into normal mammary gland
[9] = 24 min after injection into normal mammary gland
[10] = 30 min after injection into normal mammary gland
[11] = 36 min after injection into normal mammary gland
[12] = 42 min after injection into normal mammary gland
[13] = 48 min after injection into normal mammary gland

**Q.** Which “Visualized LNs/Total Examined LNs, Axillary LN” value [1, 6] does the source give for “PAMAM-G6D-(Gd-1B4M)256 dendrimer conjugate” here?
**A.** 10/10

**Q.** What about the “Visualized LNs/Total Examined LNs, Lateral thoracic LN” value [1, 6] of the same substance?
**A.** 0/10

**Q.** What about the “Visualized LNs/Total Examined LNs, Superficial cervical LN” value [1, 6] of the same substance?
**A.** 1/10

**Q.** And the “Visualized LNs/Total Examined LNs, Axillary LN” value [1, 7]?
**A.** 10/10

**Q.** And the “Visualized LNs/Total Examined LNs, Lateral thoracic LN” value [1, 7]?
**A.** 1/10

**Q.** And the “Visualized LNs/Total Examined LNs, Superficial cervical LN” value [1, 7]?
**A.** 1/10

**Q.** And the “Visualized LNs/Total Examined LNs, Axillary LN” value [1, 8]?
**A.** 10/10

**Q.** What about the “Visualized LNs/Total Examined LNs, Lateral thoracic LN” value [1, 8] of the same substance?
**A.** 2/10

**Q.** What about the “Visualized LNs/Total Examined LNs, Superficial cervical LN” value [1, 8] of the same substance?
**A.** 1/10

**Q.** And the “Visualized LNs/Total Examined LNs, Axillary LN” value [1, 9]?
**A.** 10/10

**Q.** What about the “Visualized LNs/Total Examined LNs, Lateral thoracic LN” value [1, 9] of the same substance?
**A.** 4/10

**Q.** And the “Visualized LNs/Total Examined LNs, Superficial cervical LN” value [1, 9]?
**A.** 2/10

**Q.** And the “Visualized LNs/Total Examined LNs, Axillary LN” value [1, 10]?
**A.** 10/10

**Q.** What about the “Visualized LNs/Total Examined LNs, Lateral thoracic LN” value [1, 10] of the same substance?
**A.** 4/10

**Q.** What about the “Visualized LNs/Total Examined LNs, Superficial cervical LN” value [1, 10] of the same substance?
**A.** 2/10

**Q.** And the “Visualized LNs/Total Examined LNs, Axillary LN” value [1, 11]?
**A.** 10/10

**Q.** And the “Visualized LNs/Total Examined LNs, Lateral thoracic LN” value [1, 11]?
**A.** 5/10

**Q.** What about the “Visualized LNs/Total Examined LNs, Superficial cervical LN” value [1, 11] of the same substance?
**A.** 3/10

**Q.** What about the “Visualized LNs/Total Examined LNs, Axillary LN” value [1, 12] of the same substance?
**A.** 10/10

**Q.** What about the “Visualized LNs/Total Examined LNs, Lateral thoracic LN” value [1, 12] of the same substance?
**A.** 6/10

**Q.** What about the “Visualized LNs/Total Examined LNs, Superficial cervical LN” value [1, 12] of the same substance?
**A.** 3/10

**Q.** What about the “Visualized LNs/Total Examined LNs, Axillary LN” value [1, 13] of the same substance?
**A.** 10/10

**Q.** What about the “Visualized LNs/Total Examined LNs, Lateral thoracic LN” value [1, 13] of the same substance?
**A.** 6/10

**Q.** And the “Visualized LNs/Total Examined LNs, Superficial cervical LN” value [1, 13]?
**A.** 3/10

**Q.** What about the “Mice in which the axillary lymph node and its afferent lymphatic vessels were visualized” value ([1]; initial (6 min) time point) of the same substance?
**A.** all 10 mice

**Q.** What about the “Visualization of draining lymph nodes and lymphatic vessels (FIG. 3)” value [2] of the same substance?
**A.** clearly visualized

**Q.** What about the “Imaging of enlarged lymph nodes containing tumor metastases and dilated lymphatic vessels” value [3] of the same substance?
**A.** clearly imaged

**Q.** And the “Visualization of flow within the draining lymphatic vessels” value ([3]; peritumoral injection)?
**A.** readily visualized

**Q.** What about the “Enhancement of axillary lymph node tissue with metastatic tumor cells” value [4] of the same substance?
**A.** did not shown enhancement

**Q.** What about the “Enhancement of the lymphatic vessel flowing into the lymph node with a metastatic tumor” value [4] of the same substance?
**A.** dilated and showed enhancement

**Q.** What about the “Visualization of flow within the draining lymphatic vessels” value ([4]; peritumoral injection) of the same substance?
**A.** readily visualized

**Q.** What about the “Survival period in the lymph system” value [5] of the same substance?
**A.** intermediate survival period in the lymph system
